Test results reported in US20080145313A1, “Compositions and Methods for the Treatment and Prevention of Neoplastic Disorders” (Genesis Research & Development Corporation Limited, priority 2006, published 2008).

These substances were tested on A549 cells (assay: Growth inhibition of siRNA-transfected A549 cells, SYBR Green I DNA content). Conditions: 10 nM siRNA; DNA content 96 hours after transfection.
Format: cell-based, human
Procedure: A549 cells (human lung cancer cell line; ATCC No. CCL-185), SK-MeI-5 cells (human melanoma cell line; ATCC No. HTB-70), MCF-7 cells (human adenocarcinoma cell line; ATCC No. HTB-22), HCT-116 cells (colorectal carcinoma; ATCC CCL-247) and HCT-116 p53 null cells (derived from ATCC No. CCL-247; Bunz et al., Science 282:1497-1501, 1998) were cultured in RPMI 1640 medium with 10% v/v heat-inactivated fetal calf serum (FCS). Cells were seeded at a density of 5×10^4 cells/cm^2 in multi-well tissue culture plates. Sequences of Stealth™ siRNA duplexes (Invitrogen) targeting human ribonucleotide reductase subunit 1 (SEQ ID NO: 22) and subunit 2 (SEQ ID NO; 38) are given in SEQ ID NO: 4830-4832 (DNA), and SEQ ID NO: 5136-5138 (RNA) for RRM1, and SEQ ID NO: 5306-5308 (DNA), and SEQ ID NO: 5303-5305 (RNA) for RRM2. siRNAs were transfected at different concentrations into cells using Lipofectamine™ RNAiMAX transfection reagent (Invitrogen). Non-specific siRNA (SEQ ID NO: 4804 and 4805 (DNA), and SEQ ID NO: 5301 and 5302 (RNA)) were used as controls. The cellular DNA content was measured using a SYBR Green I-based fluorometric assay at 24, 48, 72 and 96 hours after transfection (120 hours for the MCF-7 cells), as follows. At the indicated time points following reverse transfection, cells were harvested and frozen at −80° C. overnight. Cells were thawed and cell lysis buffer (phosphate-buffered saline (PBS) containing 1% Triton X-100, pH 7) and SYBR Green I (1:10^5 V/V; Invitrogen) was added to the wells and incubated overnight in the dark at 4° C.
The following day, cell lysates were mixed thoroughly, and DNA fluorescence was measured with a Wallac Victor^2 plate reader (Turku, Finland) set at an excitation frequency of 485 nm and measuring emission at 535 nm.
To determine the duration of the knock-down effect of RRM1-targeting siRNA, A549 cells were reverse transfected with 1 or 10 nM RRM1-3 (SEQ ID NO: 4832 (DNA, and SEQ ID NO: 5138 (RNA)) or control siRNA (SEQ ID NO: 4804 (DNA), and SEQ ID NO: 5301 (RNA)), and growth followed over time. Growth inhibition was measured daily as described above for up to ten days. RRM1-3-mediated RRM1 silencing inhibited growth for at least 10 days post-transfection at both 1 and 10 nM (FIG. 11).
siRNA-mediated inhibition of cancer cell growth was determined in A549 cells as follows. A549 cells (human lung cancer cell line; ATCC No. CCL-185) were cultured in RPMI 1640 medium with 10% v/v heat-inactivated fetal calf serum. Cells were seeded at a density of 5×10^3 cells/cm^2 in multi-well tissue culture plates. Stealth™ siRNA duplexes (Invitrogen) targeting genes involved in cancer energy and metabolism pathways and listed in Table 9, were transfected at 10 nM into cells using Lipofectamine™ RNAiMAX transfection reagent (Invitrogen). Non-specific siRNA (SEQ ID NO: 4804 and 4805 (DNA), and SEQ ID NO: 5301 and 5302 (RNA)) were used as controls. The cellular DNA content was measured using a SYBR Green I-based fluorometric assay at 96 hours after transfection. The cells were harvested and frozen at −80° C. overnight. Cells were thawed and cell lysis buffer (phosphate-buffered saline (PBS) containing 1% Triton X-100, pH 7) and SYBR Green I (1:10^5 v/v; Invitrogen) was added to the wells and incubated overnight in the dark at 4° C. The following day, cell lysates were mixed thoroughly, and DNA fluorescence was measured with a Wallac Victor^2 plate reader (Turku, Finland) set at an excitation frequency of 485 nm and measuring emission at 535 nm.
Three different siRNAs were tested for each target gene. The average fluorescence units from three replicate wells, representing the amount of DNA per well, were used to determine the effect on growth inhibition. The results are given in Table 10 (energy and metabolism gene targets) and Table 11 (transporter gene targets).
siRNA-mediated RNAi was also determined on a panel of different cell lines. […]

Substance	Growth Inhibition in A549 cells
SEQ ID NO: 4807: siRNA targeting ARNT (HIF-1β) (chain 1 TGCACCTGATCATAGAGTGTGCTGC; chain 2 UGCACCUGAUCAUAGAGUGUGCUGC; chemistry not given here; one strand in two spellings)	+ (inhibits by at least 50%)
SEQ ID NO: 4808: siRNA targeting ARNT (HIF-1β) (chain 1 TCTCATGGAAGACTGCTGACCTTCC; chain 2 UCUCAUGGAAGACUGCUGACCUUCC; chemistry not given here; one strand in two spellings)	− (no growth inhibition with any siRNA)
SEQ ID NO: 4809: siRNA targeting H6PD (G6PDH) (chain 1 TTTGCCAGACATCAGGATGAAAGGC; chain 2 UUUGCCAGACAUCAGGAUGAAAGGC; chemistry not given here; one strand in two spellings)	++ (inhibits by at least 75%)
SEQ ID NO: 4810: siRNA targeting H6PD (G6PDH) (chain 1 TCTTGAACAAGATCCGAGCGTAGCC; chain 2 UCUUGAACAAGAUCCGAGCGUAGCC; chemistry not given here; one strand in two spellings)	− (no growth inhibition with any siRNA)
SEQ ID NO: 4811: siRNA targeting H6PD (G6PDH) (chain 1 TTATGGAGACATGTCCCTGGAGCTC; chain 2 UUAUGGAGACAUGUCCCUGGAGCUC; chemistry not given here; one strand in two spellings)	− (no growth inhibition with any siRNA)
SEQ ID NO: 4812: siRNA targeting HK-II (chain 1 ATACTGGTCAACCTTCTGCACTTGG; chain 2 AUACUGGUCAACCUUCUGCACUUGG; chemistry not given here; one strand in two spellings)	− (no growth inhibition with any siRNA)
SEQ ID NO: 4814: siRNA targeting HK-II (chain 1 TTAACAATGATGCTGTCGTCACAGG; chain 2 UUAACAAUGAUGCUGUCGUCACAGG; chemistry not given here; one strand in two spellings)	− (no growth inhibition with any siRNA)
SEQ ID NO: 4815: siRNA targeting LDHA/5 (chain 1 ATTAAGACGGCTTTCTCCCTCTTGC; chain 2 AUUAAGACGGCUUUCUCCCUCUUGC; chemistry not given here; one strand in two spellings)	− (no growth inhibition with any siRNA)
SEQ ID NO: 4816: siRNA targeting LDHA/5 (chain 1 AAATATGTTCACGTTACGCTGGACC; chain 2 AAAUAUGUUCACGUUACGCUGGACC; chemistry not given here; one strand in two spellings)	+ (inhibits by at least 50%)
SEQ ID NO: 4817: siRNA targeting LDHA/5 (chain 1 TATACTCTCTGCCAAATCTGCTACA; chain 2 UAUACUCUCUGCCAAAUCUGCUACA; chemistry not given here; one strand in two spellings)	− (no growth inhibition with any siRNA)
SEQ ID NO: 4818: siRNA targeting PFKL (chain 1 AATGTCTGTCTTCATCTTCTCCGTC; chain 2 AAUGUCUGUCUUCAUCUUCUCCGUC; chemistry not given here; one strand in two spellings)	− (no growth inhibition with any siRNA)
SEQ ID NO: 4819: siRNA targeting PFKL (chain 1 TAGTAGTCATGGCACTTCTCGTTCC; chain 2 UAGUAGUCAUGGCACUUCUCGUUCC; chemistry not given here; one strand in two spellings)	− (no growth inhibition with any siRNA)
SEQ ID NO: 4820: siRNA targeting PFKL (chain 1 TAGTCTCTGAGATCTTACCTTCCGC; chain 2 UAGUCUCUGAGAUCUUACCUUCCGC; chemistry not given here; one strand in two spellings)	− (no growth inhibition with any siRNA)
SEQ ID NO: 4821: siRNA targeting PRPS1 (chain 1 AATTGTCATTGATTTCGCCACAACC; chain 2 AAUUGUCAUUGAUUUCGCCACAACC; chemistry not given here; one strand in two spellings)	− (no growth inhibition with any siRNA)
SEQ ID NO: 4822: siRNA targeting PRPS1 (chain 1 TCCACATTCAGCCTGTCTGCAATGG; chain 2 UCCACAUUCAGCCUGUCUGCAAUGG; chemistry not given here; one strand in two spellings)	− (no growth inhibition with any siRNA)
SEQ ID NO: 4823: siRNA targeting PRPS1 (chain 1 TCAAGATGGCATAAACTCTGGTGGC; chain 2 UCAAGAUGGCAUAAACUCUGGUGGC; chemistry not given here; one strand in two spellings)	+ (inhibits by at least 50%)
SEQ ID NO: 4824: siRNA targeting CPS1 (chain 1 ATATGATGCAGCCACCACATGCCTC; chain 2 AUAUGAUGCAGCCACCACAUGCCUC; chemistry not given here; one strand in two spellings)	++ (inhibits by at least 75%)
SEQ ID NO: 4825: siRNA targeting CPS1 (chain 1 AATACCTTCACCAAAGCAAGCCACC; chain 2 AAUACCUUCACCAAAGCAAGCCACC; chemistry not given here; one strand in two spellings)	− (no growth inhibition with any siRNA)
SEQ ID NO: 4826: siRNA targeting CPS1 (chain 1 TTCCCAAGCATGGTACCCTTATCCC; chain 2 UUCCCAAGCAUGGUACCCUUAUCCC; chemistry not given here; one strand in two spellings)	− (no growth inhibition with any siRNA)
SEQ ID NO: 4828: siRNA targeting CAD (chain 1 TGTCTGAGAAGCCAAGACACTTGGC; chain 2 UGUCUGAGAAGCCAAGACACUUGGC; chemistry not given here; one strand in two spellings)	− (no growth inhibition with any siRNA)
SEQ ID NO: 4829: siRNA targeting CAD (chain 1 AACTGTGTCAATCTGTTTCACTGCT; chain 2 AACUGUGUCAAUCUGUUUCACUGCU; chemistry not given here; one strand in two spellings)	+ (inhibits by at least 50%)
SEQ ID NO: 4836: siRNA targeting DHFR (chain 1 AATATCTGAATTCATTCCTGAGCGG; chain 2 AAUAUCUGAAUUCAUUCCUGAGCGG; chemistry not given here; one strand in two spellings)	+ (inhibits by at least 50%)
SEQ ID NO: 4837: siRNA targeting DHFR (chain 1 TTTCAAAGTCTTGCATGATCCTTGT; chain 2 UUUCAAAGUCUUGCAUGAUCCUUGU; chemistry not given here; one strand in two spellings)	− (no growth inhibition with any siRNA)
